How the values were obtained:
[1] = molecular target: T1, human adenosine A2A receptor (Homo sapiens, UniProt P29274); assay: [3H]-SCH-58261 binding assay, human adenosine A2A receptor (CHO cell membranes, SPA); conditions: displacement of [3H]-SCH-58261 (1 nM); recombinant receptor in CHO membranes; Ki by Cheng-Prussoff equation; read-out: hA2 (pKi) (converted)
T1 construct: expressed in transfected cells; host or cells: CHO cells, semliki forest virus expression system; washed membrane pellet used
Experimental: Human Adenosine A2A Receptor
The human adenosine A2A receptor was recombinantly expressed in chinese hamster ovary (CHO) cells using the semliki forest virus expression system. Cells were harvested, washed twice by centrifugation, homogenised and again washed by centrifugation. The final washed membrane pellet was suspended in a Tris (50 mM) buffer containing 120 mM NaCl, 5 mM KCl, 2 mM CaCl2 and 10 mM MgCl2 (pH 7.4) (buffer A). The [^3H]-SCH-58261 (Dionisotti et al., 1997, Br J Pharmacol 121, 353; 1 nM) binding assay was carried out in 96-well plates in the presence of 2.5 μg of membrane protein, 0.5 mg of Ysi-poly-1-lysine SPA beads and 0.1 U adenosine deaminase in a final volume of 200 μl of buffer A. Non-specific binding was defined using xanthine amine congener (XAC; 2 μM). Compounds were tested at 10 concentrations from 10 μM–0.3 nM. All assays were conducted in duplicate and repeated at least two times. Assay plates were incubated for 1 hour at room temperature before centrifugation and then bound ligand determined using a Packard Topcount scintillation counter. IC50 values, the concentration where 50% of the […] binding is displaced, were calculated using a non-linear curve fitting program and Ki values calculated using the Cheng-Prussoff equation.

T1 sequence (P29274 whole entry): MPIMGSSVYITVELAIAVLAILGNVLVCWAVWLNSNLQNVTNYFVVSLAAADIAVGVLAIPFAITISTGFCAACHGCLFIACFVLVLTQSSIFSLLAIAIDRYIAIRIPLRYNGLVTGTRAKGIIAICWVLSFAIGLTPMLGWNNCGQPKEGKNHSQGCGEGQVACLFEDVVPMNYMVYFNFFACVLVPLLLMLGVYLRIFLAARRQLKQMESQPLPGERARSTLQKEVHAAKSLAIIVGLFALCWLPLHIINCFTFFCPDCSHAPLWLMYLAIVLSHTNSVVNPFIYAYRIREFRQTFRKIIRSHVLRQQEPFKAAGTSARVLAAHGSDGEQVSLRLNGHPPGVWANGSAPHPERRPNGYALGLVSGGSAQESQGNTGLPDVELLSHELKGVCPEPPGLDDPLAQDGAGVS

With `COc1ccc(N2CCOCC2)c2sc(NC(=O)NC3CCCC3)nc12` [Example 37, 1-Cyclopentyl-3-(4-methoxy-7-morpholin-4-yl-benzothiazol-2-yl)-urea] the Ki [1] was 7.94 nM and the melting point was 191 to 194 °C.

Reference: patent US7019001B2, “Substituted benzothiazole amide derivatives” (Hoffman-La Roche Inc., priority 2001, dated 2006)
